Values quoted from earlier work in US12622888B2, “Pharmaceutical composition and application thereof” (priority 2019, dated 2026).

Tested on: infarct size of the heart
Details: prior art CN2011102229806, FIG. 3

SMILES	rank order of the effect on reducing the infarct size
O=C(/C=C/c1ccc(O)c2c1[C@H](C(=O)O[C@H](Cc1ccc(O)c(O)c1)C(=O)O)[C@@H](c1ccc(O)c(O)c1)O2)O[C@H](Cc1ccc(O)c(O)c1)C(=O)O [salvianolic acid B]	salvianolic acid B <ginsenoside Rg1<<salvianolic acid B: ginsenoside Rg1=2:5 group
CC(C)=CCC[C@](C)(O[C@@H]1O[C@H](CO)[C@@H](O)[C@H](O)[C@H]1O)[C@H]1CC[C@]2(C)[C@@H]1[C@H](O)C[C@@H]1[C@@]3(C)CC[C@H](O)C(C)(C)[C@@H]3[C@@H](O[C@@H]3O[C@H](CO)[C@@H](O)[C@H](O)[C@H]3O)C[C@]12C [ginsenoside Rg1]	salvianolic acid B <ginsenoside Rg1<<salvianolic acid B: ginsenoside Rg1=2:5 group
